Measurements taken from patent US20120122079A1, “INFECTION DETECTION METHODS AND SYSTEMS AND RELATED COMPOUNDS AND COMPOSITIONS” (priority 2010, published 2012).

System: viral neuraminidase
Assay type: biochemical, influenza
Settings: pH 5.5

Row | Compound | whether the substrate was cleaved and odorant released (decrease of the substrate signal and appearance of the cleavage products signal)
1 | CC(=O)NC1C(O)CC(OCC2(C)CC2CC2CC3CC3(C)C2(C)C)(C(=O)O)OC1CC(O)CO [javanol, Sodium ([(1R,2S)-1-methyl-2-[[(1R,3S,5S)-1,2,2-trimethyl-3-bicyclo[3.1.0]hexanyl]methyl]cyclopropyl]methyl-5-acetamido-3,5-dideoxy-α-D-glycero-D-galacto-2-nonulopyranoside)onate] | substrate is still present
2 | Sodium (4-(4-hydroxy-3-methoxyphenyl)butan-2-one-5-acetamido-3,5-dideoxy-α-D-glycero-D-galacto-2-nonulopyranoside)onate [zingerone] | significant loss of peak
